Experimental data from patent publication US20150307938A1, “METHOD TO IDENTIFY A NOVEL CLASS OF IMMUNOLOGIC ADJUVANTS” (Lancell, L.L.C., priority 2011, published 2015).
Counter-ions that a name gives are not always drawn.

Key:
[1] = tested on: Murine Skin Dendritic Cells; experiment: Activation of murine skin dendritic cells by DBP vs. DBlT (DC per lymph node, CD86); type: in vivo; conditions: topical treatment
Fluzone = tested on: Fluzone; design: species or system C57BL/6 mice; conditions: mouse, in vivo
skin = experiment: Affymetrix microarray of skin, DBP-4 hr and analogs vs. untreated; gene selection by log-2 fold change, Wilcoxon, Kendall tau (Tables 8, 9); type: in vivo, mouse

CCCCOC(=O)[C@H](O)[C@@H](O)C(=O)OCCCC [DBlT, dibutyl L tartrate]
MFI CD86 [1]: 634 (126) | HAI titer / adjuvant effect with the same dose of Fluzone (Fluzone): almost but not quite as good as DBT had

CC12CCC(CC1=O)C2(C)C (stereo not shown) [camphor]
HAI titer / adjuvant effect with the same dose of Fluzone (Fluzone): improved

COC(=O)c1ccccc1C(=O)OC [DMP, dimethylphthalate]
Log2 Expression Level (skin; gene #1 of Table 8): 5.82 | Log2 Expression Level (skin; gene #2 of Table 8): 6.47 | Log2 Expression Level (skin; gene #3 of Table 8): 8.83 | Log2 Expression Level (skin; gene #4 of Table 8): 8.83 | Log2 Expression Level (skin; gene #5 of Table 8): 6.08 | Log2 Expression Level (skin; gene #6 of Table 8): 6.09 | Log2 Expression Level (skin; gene #7 of Table 8): 5.32 | Log2 Expression Level (skin; gene #8 of Table 8): 6.09 | Log2 Expression Level (skin; gene #9 of Table 8): 6.09 | Log2 Expression Level (skin; gene #10 of Table 8): 6.09 | Log2 Expression Level (skin; gene #11 of Table 8): 5.32 | Log2 Expression Level (skin; gene #12 of Table 8): 5.32 | Log2 Expression Level (skin; gene #13 of Table 8): 5.32 | Log2 Expression Level (skin; gene #14 of Table 8): 4.91 | Log2 Expression Level (skin; gene #15 of Table 8): 4.91 | Log2 Expression Level (skin; gene #16 of Table 8): 6.50 | Log2 Expression Level (skin; gene #17 of Table 8): 8.80 | Log2 Expression Level (skin; gene #18 of Table 8): 8.80 | Log2 Expression Level (skin; gene #19 of Table 8): 8.29 | Log2 Expression Level (skin; gene #20 of Table 8): 8.26 | Log2 Expression Level (skin; gene #21 of Table 8): 7.91 | Log2 Expression Level (skin; gene #22 of Table 8): 5.99 | Log2 Expression Level (skin; gene #23 of Table 8): 5.65 | Log2 Expression Level (skin; gene #24 of Table 8): 7.33 | Log2 Expression Level (skin; gene #25 of Table 8): 7.33 | Log2 Expression Level (skin; gene #26 of Table 8): 7.55 | Log2 Expression Level (skin; gene #27 of Table 8): 7.55 | Log2 Expression Level (skin; gene #28 of Table 8): 7.55 | Log2 Expression Level (skin; gene #29 of Table 8): 5.77 | Log2 Expression Level (skin; gene #30 of Table 8): 8.30 | Log2 Expression Level (skin; gene #31 of Table 8): 8.30 | Log2 Expression Level (skin; gene #32 of Table 8): 8.30 | Log2 Expression Level (skin; gene #33 of Table 8): 5.48 | Log2 Expression Level (skin; gene #34 of Table 8): 6.50 | Log2 Expression Level (skin; gene #35 of Table 8): 6.50 | Log2 Expression Level (skin; gene #36 of Table 8): 8.83 | Log2 Expression Level (skin; gene #37 of Table 8): 8.83 | Log2 Expression Level (skin; gene #38 of Table 8): 8.83 | Log2 Expression Level (skin; gene #39 of Table 8): 7.03 | Log2 Expression Level (skin; gene #40 of Table 8): 7.09 | Log2 Expression Level (skin; gene #41 of Table 8): 7.32 | Log2 Expression Level (skin; gene #42 of Table 8): 6.91 | Log2 Expression Level (skin; gene #43 of Table 8): 6.91 | Log2 Expression Level (skin; gene #44 of Table 8): 7.32 | Log2 Expression Level (skin; gene #45 of Table 8): 6.91 | Log2 Expression Level (skin; gene #46 of Table 8): 7.32 | Log2 Expression Level (skin; gene #47 of Table 8): 8.08 | Log2 Expression Level (skin; gene #48 of Table 8): 8.08 | Log2 Expression Level (skin; gene #49 of Table 8): 8.08 | Log2 Expression Level (skin; gene #50 of Table 8): 9.13 | Log2 Expression Level (skin; gene #51 of Table 8): 7.49 | Log2 Expression Level (skin; gene #52 of Table 8): 9.61 | Log2 Expression Level (skin; gene #53 of Table 8): 8.18 | Log2 Expression Level (skin; gene #54 of Table 8): 9.63 | Log2 Expression Level (skin; gene #55 of Table 8): 6.47 | Log2 Expression Level (skin; gene #56 of Table 8): 9.09 | Log2 Expression Level (skin; gene #57 of Table 8): 8.30 | Log2 Expression Level (skin; gene #58 of Table 8): 8.81 | Log2 Expression Level (skin; gene #59 of Table 8): 8.07 | Log2 Expression Level (skin; gene #60 of Table 8): 6.96 | Log2 Expression Level (skin; gene #61 of Table 8): 11.13 | Log2 Expression Level (skin; gene #62 of Table 8): 7.95 | Log2 Expression Level (skin; gene #63 of Table 8): 10.28 | Log2 Expression Level (skin; gene #64 of Table 8): 10.44 | Log2 Expression Level (skin; gene #65 of Table 8): 6.81 | Log2 Expression Level (skin; gene #66 of Table 8): 8.09 | Log2 Expression Level (skin; gene #67 of Table 8): 4.20 | Log2 Expression Level (skin; gene #68 of Table 8): 7.36 | Log2 Expression Level (skin; gene #69 of Table 8): 5.28 | Log2 Expression Level (skin; gene #70 of Table 8): 3.86 | Log2 Expression Level (skin; gene #71 of Table 8): 7.42 | Log2 Expression Level (skin; gene #72 of Table 8): 7.77 | Log2 Expression Level (skin; gene #73 of Table 8): 5.38 | Log2 Expression Level (skin; gene #74 of Table 8): 7.07 | Log2 Expression Level (skin; gene #75 of Table 8): 8.29 | Log2 Expression Level (skin; gene #76 of Table 8): 4.15 | Log2 Expression Level (skin; gene #77 of Table 8): 8.59 | Log2 Expression Level (skin; gene #78 of Table 8): 9.90 | Log2 Expression Level (skin; gene #79 of Table 8): 7.10 | Log2 Expression Level (skin; gene #80 of Table 8): 12.64 | Log2 Expression Level (skin; gene #81 of Table 8): 5.57 | Log2 Expression Level (skin; gene #82 of Table 8): 4.77 | Log2 Expression Level (skin; gene #83 of Table 8): 6.70 | Log2 Expression Level (skin; gene #84 of Table 8): 6.49 | Log2 Expression Level (skin; gene #85 of Table 8): 4.59 | Log2 Expression Level (skin; gene #86 of Table 8): 6.27 | Log2 Expression Level (skin; gene #87 of Table 8): 8.57 | Log2 Expression Level (skin; gene #88 of Table 8): 5.28 | Log2 Expression Level (skin; gene #89 of Table 8): 5.43 | Log2 Expression Level (skin; gene #90 of Table 8): 9.55 | Log2 Expression Level (skin; gene #91 of Table 8): 6.99 | Log2 Expression Level (skin; gene #92 of Table 8): 6.96 | Log2 Expression Level (skin; gene #93 of Table 8): 8.40 | Log2 Expression Level (skin; gene #94 of Table 8): 7.22 | Log2 Expression Level (skin; gene #95 of Table 8): 5.77 | Log2 Expression Level (skin; gene #96 of Table 8): 7.21 | Log2 Expression Level (skin; gene #97 of Table 8): 5.27 | Log2 Expression Level (skin; gene #98 of Table 8): 4.12 | Log2 Expression Level (skin; gene #99 of Table 8): 8.88 | Log2 Expression Level (skin; gene #100 of Table 8): 6.73
